The source of these data is patent US11944605B2, “Rapamycin analogs and uses thereof” (Janssen Pharmaceutica NV, priority 2018, dated 2024).

≈ marks a conversion by molar mass, not a printed value. Entries after “also recorded” stand apart in the source; their conditions may differ. Where two headings read alike, the source gives them in different places.

For series [1], the system named is mTORC1 pathway (pS6K1 T389) in PC3 cells. Nature of the series: Western blot, mTORC1 pathway (pS6K1) in PC3 cells. The class given is cell-based. To be noted: PC3 cells. The method in brief:
(§1)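 Triton lysates analysed by Western blot for pS6K1 and pAkt, detected with IRDye 800 anti-rabbit secondary on a Li-Cor imager.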

The test system of series [2] is mTORC1 pathway in Jurkat cells. In words: Western blot, mTORC1 pathway in Jurkat cells. The class given is cell-based. To be noted: 24 hrs. On the procedure: (§2) The methods employed were substantially similar to those described above. Compounds were evaluated in PC3 cells, Jurkat cells, wild-type mouse embryotic fibroblast (MEF) cells, tuberous sclerosis 2 (TSC2) negative (TSC −/−) MEF cells, and tuberous sclerosis 2 (TSC2) positive (TSC +/+) MEF cells. Cells were incubated with compounds of the present invention for various time periods (e.g., 5 minutes, 15 minutes, 30 minutes, 90 minutes, 24 hours, or 48 hours), and evaluated according to known methodologies, such as those herein described.

Series [3] has as its system mTORC1 pathway in wild-type MEF cells. Nature of the series: Western blot, mTORC1 pathway in wild-type MEF cells. The class given is cell-based, mouse. On the procedure: as §2
The test system of series [4] is mTORC2 pathway (Akt phosphorylation) in PC3 cells. Nature of the series: Western blot, mTORC2 pathway (pAkt) in PC3 cells. The class given is cell-based. As to conditions: 24 hours. The method in brief:
as §1

In series [5] the test system is 4E-BP1 phosphorylation in TSC+/+ MEF cells. In words: Western blot, 4E-BP1 phosphorylation in TSC+/+ MEF cells. The class given is cell-based, mouse. To be noted: 24 hours. On the procedure: as §2
Series [6] has as its system IFN-γ production. Nature of the series: IFN-γ production in allogenic mixed lymphocyte reaction. The class given is cell-based. To be noted: for IC50: read-out: IFN-γ Inhibition IC50s. On the procedure:
Assessment of Effect on IFN-γ Production in Allogenic Mixed Lymphocyte Reaction
The effect of rapamycin, everolimus, I-29, and I-117 on IFN-y production was evaluated in an allogenic mixed lymphocyte reaction (E.g., Eleftheriadis, T. et al., Int. J. Mol. Med., 37(5): 1412-20 (2016) https://doi.org/10.3892/ijmm.2016.2547).

The subject of series [7] is mTORC1 pathway in tuberous sclerosis 2 (TSC2) positive (TSC+/+) MEF cells. In words: Western blot, mTORC1 pathway in TSC+/+ MEF cells. The class given is cell-based, mouse. As to the method: as §2
Series [8] deals with 4E-BP1 phosphorylation in PC3 cells. Nature of the series: Western blot, 4E-BP1 phosphorylation in PC3 cells. The class given is cell-based. As to conditions: 24 hours.
The test system of series [9] is mTORC1 pathway in tuberous sclerosis (TSC2) negative (TSC−/−) MEF cells. Nature of the series: Western blot, mTORC1 pathway in TSC−/− MEF cells. The class given is cell-based, mouse. On the procedure: as §2
Series [10] relates to mTORC1 over mTORC2. In words: mTORC1 selectivity over mTORC2 at 24 hrs (Western blot based pS6K1 and pAKT assay). As to conditions: 24 hrs. The class given is cell-based.
The subject of series [11] is mTORC2 (Akt phosphorylation) in wild-type MEF cells. In words: Western blot, mTORC2 pathway (pAkt) in wild-type MEF cells. The class given is cell-based, mouse. As to conditions: 24 hours. On the procedure:
as §2

Series [12] concerns pS6K1 (p-p70 S6 Kinase (Thr389)) in MCF-7 cells. Nature of the series: AlphaLISA Ultra pS6K1 Assay. The class given is cell-based. As to conditions: Homo sapiens, 1.5 h; MCF7 cells, 90 min. Put shortly: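 MCF-7 cells were seeded for 20–24 h, refed with fresh medium for 2 h, then treated with compound for 90 min at 0.5% final DMSO. Lysates were frozen at −80 °C, thawed and assayed by AlphaLISA with acceptor then donor beads, 2 h each.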

The test system of series [13] is mTORC2 (Akt phosphorylation) in TSC+/+ MEF cells. Nature of the series: Western blot, mTORC2 pathway (pAkt) in TSC+/+ MEF cells. The class given is cell-based, mouse. On the procedure: as §2
A short description of series [14]: Pharmacokinetic properties in C57Bl/6 mice. The class given is in vivo. As to conditions: mouse, plasma; for half-life: read-out: Terminal T1/2 (converted). As to the method: Pharmacokinetic Properties
The pharmacokinetic properties of compounds of the present invention were evaluated in C57Bl/6 mice and compared with rapamycin. Animals were fasted overnight prior to administration of I-29 or rapamycin (1 mg/kg IV, 10 mg/kg PO, or 2 mg/kg IP). Animals were bled at time intervals for up to 48 hours following administration of compounds. Whole blood from each mouse was indivisually collected in polypropylene tubes and immediately centrifuged. Alloquates of the separated plasma were promptly prepared for HPCL analysis.

In series [15] the test system is pAKT (p-Akt 1/2/3 (Ser473)) in MCF-7 cells. Nature of the series: AlphaLISA Ultra pAKT Assay. The class given is cell-based. As to conditions: Homo sapiens, 1.5 h; MCF7 cells, 90 min.
Series [16] in a line: Solubility in 100 mM phosphate buffer (pH 7.4). The class given is physicochemical. As to conditions: pH 7.4, aqueous buffer. The text has this: The compound numbers correspond to the compound numbers in Table 1.

Turning to `CO[C@H]1C[C@@H]2CC[C@@H](C)[C@@](O)(O2)C(=O)C(=O)N2CCCC[C@H]2C(=O)O[C@H]([C@H](C)C[C@@H]2CC[C@@H](OCCO)[C@H](OC)C2)CC(=O)[C@H](C)/C=C(\C)[C@@H](O)[C@@H](OC)C(=O)[C@H](C)C[C@H](C)/C=C/C=C/C=C/1C` [Everolimus, everolimus, reference compound], the “inhibition of the mTORC1 pathway” value in series [1] (90 minutes), in series [1] (24 hours), in [2], in series [3] (90 minutes), in series [3] (24 hours) and in [7] (90 minutes) was “strong inhibition” each time. Moreover, the “inhibition of the mTORC1 pathway” value in [7] (24 hours), in series [9] (90 minutes) and in series [9] (24 hours) was “strong inhibition” throughout. For the same compound, the “inhibition of mTORC2 (Akt phosphorylation)” value (shortened to “inhibition of mTORC2”) in series [4] is “dose dependent inhibition”. Further, the “inhibition of 4E-BP1 phosphorylation” value in [5] and in series [8] was “no inhibition” each time. Also, the “inhibition of IFN-γ production” value in series [6] is recorded as “significantly inhibited”. Moreover, the IC50 in series [6] is 15.2 nM.
Take `COCCOCCO[C@H]1C[C@@H]2CC[C@@H](C)[C@@](O)(O2)C(=O)C(=O)N2CCCC[C@H]2C(=O)O[C@H]([C@H](C)C[C@@H]2CC[C@@H](OCCO)[C@H](OC)C2)CC(=O)[C@H](C)/C=C(\C)[C@@H](O)[C@@H](OC)C(=O)[C@H](C)C[C@H](C)/C=C/C=C/C=C/1C` [I-105, (22E,24E,26E,27E,35R,36S,37R,38R,40S,42S,44S,45S,46R,47R,56R)-46, 56-dihydroxy-45-[(1R)-2-[(1S,3R, 4R)-4-(2-hydroxyethoxy)-3-methoxy-cyclohexyl]-1-methyl-ethyl]-47-methoxy-44-[2-(2-methoxyethoxy)ethoxy]-35,36,37,38,48,49-hexamethyl-66, 67-dioxa-57-azatricyclohexatriaconta-22,24,26(48),27(49)-tetraene-50, 51,52,53,54-pentone]: the “mTORC1 selective @ 24 hrs” value in [10] is “YES”. Moreover, the “inhibition of the mTORC1 pathway” value in series [3] (24 hours) was “moderate inhibition; also recorded: strong inhibition”; in [7] (90 minutes), “strong inhibition”; in [7] (24 hours), “strong inhibition”. In [5], the “inhibition of 4E-BP1 phosphorylation” value is on record as “no inhibition”. Also, the “inhibition of mTORC2” value in series [11] was “do not inhibit”; in [13] (90 minutes), “does not inhibit”; in series [13] (24 hours) it was “do not inhibit”. The IC50 in series [12] is < 0.1 nM.
For `CO[C@@H]1C[C@H](C[C@@H](C)[C@@H]2CC(=O)[C@H](C)/C=C(\C)[C@@H](O)[C@@H](OC)C(=O)[C@H](C)C[C@H](C)/C=C/C=C/C=C(\C)[C@@H](OCCOCCOCCOCCO)C[C@@H]3CC[C@@H](C)[C@@](O)(O3)C(=O)C(=O)N3CCCC[C@H]3C(=O)O2)CC[C@H]1OCCO` [I-115, (21E,23E,25E,26E,38R,39S,40R,41R,43S,45S,47S,48S,49R,50R,59R)-49, 59-dihydroxy-47-[2-[2-[2-(2-hydroxyethoxy)ethoxy]ethoxy]ethoxy]-48-[(1R)-2-[(1S,3R, 4R)-4-(2-hydroxyethoxy)-3-methoxy-cyclohexyl]-1-methyl-ethyl]-50-methoxy-38,39,40,41,51,52-hexamethyl-70, 71-dioxa-60-azatricyclohexatriaconta-21,23,25(51),26(52)-tetraene-53, 54,55,56,57-pentone], the “inhibition of the mTORC1 pathway” value in [1] (24 hours) is reported as “strong inhibition”; in series [3] (24 hours), “moderate concentration dependent inhibition”; in series [7] (24 hours), “moderate concentration dependent inhibition”. Besides, the “mTORC1 selective @ 24 hrs” value in series [10] is “YES”. The “inhibition of mTORC2” value in series [4], in series [11] and in [13] (24 hours) was “does not inhibit” in each case. Also, the IC50 in series [12] was 0.1 to 1 nM.
As for `CO[C@@H]1C[C@H](C[C@@H](C)[C@@H]2CC(=O)[C@H](C)/C=C(\C)[C@@H](O)[C@@H](OC)C(=O)[C@H](C)C[C@H](C)/C=C/C=C/C=C(\C)[C@@H](OCCOCCOCCO)C[C@@H]3CC[C@@H](C)[C@@](O)(O3)C(=O)C(=O)N3CCCC[C@H]3C(=O)O2)CC[C@H]1O` [I-29], the IC50 in [6] is > 3000 nM. In series [14] (1 mg/kg IV), this compound had an AUC(0-inf) of 18400 ng·h/mL, an AUC(0-t) of 17600 ng·h/mL, an MRT inf of 15.9 h and a clearance of 0.9 mL/min/kg. The half-life in series [14] (1 mg/kg IV) is 14.7 h. Besides, the Vd in [14] (1 mg/kg IV, read-out: Vss) was 0.863 L/kg. In series [14] (2 mg/kg IP), the AUC(0-inf) stood at 16900 ng·h/mL, the area under the curve AUC(0-t) is 16600 ng·h/mL, the peak concentration (Cmax) was determined as 2590 ng/mL and the Tmax was determined as 0.25 h. Also, in [14] (2 mg/kg IP), the half-life is 12.6 h. For the same compound, in series [14] (10 mg/kg PO), the area under the curve AUC(0-inf) was 31700 ng·h/mL, the AUC(0-t) is 31200 ng·h/mL, the Cmax turned out to be 3290 ng/mL and the Tmax was found to be 0.25 h. Further, in series [14] (10 mg/kg PO), the half-life was 11 h.
As to `COCCOCCOC1C[C@@H]2CC[C@@H](C)[C@@](O)(O2)C(=O)C(=O)N2CCCC[C@H]2C(=O)O[C@H]([C@H](C)C[C@@H]2CC[C@@H](OCCO)[C@H](OC)C2)CC(=O)[C@H](C)/C=C(\C)[C@@H](O)[C@@H](OC)C(=O)[C@H](C)C[C@H](C)/C=C/C=C/C=C/1C` (stereo partly shown) [I-2], the “inhibition of the mTORC1 pathway” value was “strong inhibition” in [1] (24 hours), “moderate concentration dependent inhibition” in series [7] (24 hours) and “strong inhibition” in series [9] (24 hours). Further, the “mTORC1 selective @ 24 hrs” value in series [10] is “YES”. Also, the “inhibition of mTORC2” value in series [4] and in series [13] (24 hours) was “do not inhibit” throughout. The figures for the IC50 in series [15] and in series [12] were ≥ 100 nM and 0.1 to 1 nM, respectively. The “inhibition of 4E-BP1 phosphorylation” value in [8] is listed as “no inhibition”. For the same compound, the solubility in series [16] lay within 30 to 60 µM (≈ 31.4 to 62.8 µg/mL).
